# ChEMBL document CHEMBL1201862, “PubChem BioAssay data set” (2004)
# Calls of active or inactive are those of the source.
# Experiments:
# Fatty acid synthase [1] = molecular target: T1, Fatty acid synthase (Homo sapiens, UniProt P49327); test: FAS thioesterase domain inhibitors, dose response, biochemical, kinetic fluorescence intensity (AID 624326); format: functional;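 also: rate of fluorescence rise from hydrolysis of a fluorogenic O-methyl fluorescein ester substrate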
# Fatty acid synthase [2] = molecular target: T1, Fatty acid synthase; test: FAS thioesterase domain inhibitors, dose response, biochemical, endpoint fluorescence intensity, uHTS hits (AID 624327); format: functional;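 also: fluorescence from hydrolysis of an O-methyl fluorescein acyl ester substrate by the enzyme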
# Cytochrome P450 2C9 [3] = molecular target: T2, Cytochrome P450 2C9 (Homo sapiens, UniProt P11712)
# T2 sequence (P11712 whole entry): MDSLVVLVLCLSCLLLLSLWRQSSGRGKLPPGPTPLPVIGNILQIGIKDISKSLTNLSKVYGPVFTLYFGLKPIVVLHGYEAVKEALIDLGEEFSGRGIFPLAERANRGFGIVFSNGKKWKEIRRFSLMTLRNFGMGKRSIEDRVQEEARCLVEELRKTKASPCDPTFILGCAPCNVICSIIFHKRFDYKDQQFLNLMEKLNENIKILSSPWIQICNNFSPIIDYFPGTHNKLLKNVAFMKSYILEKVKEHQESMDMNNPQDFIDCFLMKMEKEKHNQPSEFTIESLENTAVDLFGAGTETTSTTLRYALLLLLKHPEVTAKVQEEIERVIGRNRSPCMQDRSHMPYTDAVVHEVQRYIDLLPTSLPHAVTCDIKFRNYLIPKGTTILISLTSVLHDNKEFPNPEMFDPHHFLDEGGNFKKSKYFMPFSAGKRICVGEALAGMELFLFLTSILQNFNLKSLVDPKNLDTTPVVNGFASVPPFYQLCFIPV
# [4] = molecular target: Induced myeloid leukemia cell differentiation protein Mcl-1 (Homo sapiens, UniProt Q07820); format: functional
# Sequence of Induced myeloid leukemia cell differentiation protein Mcl-1 (Q07820 whole entry): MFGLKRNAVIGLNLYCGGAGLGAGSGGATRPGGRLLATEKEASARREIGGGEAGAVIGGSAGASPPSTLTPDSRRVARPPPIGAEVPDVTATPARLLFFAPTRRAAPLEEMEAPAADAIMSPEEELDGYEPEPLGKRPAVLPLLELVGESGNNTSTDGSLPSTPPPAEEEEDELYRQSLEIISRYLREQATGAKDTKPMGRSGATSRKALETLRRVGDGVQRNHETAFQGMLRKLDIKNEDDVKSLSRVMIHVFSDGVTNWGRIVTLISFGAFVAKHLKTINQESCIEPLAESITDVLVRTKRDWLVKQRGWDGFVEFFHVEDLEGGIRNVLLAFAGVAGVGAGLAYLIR
# [5] = molecular target: T3, Calpain-2 catalytic subunit (Sus scrofa, UniProt P43367); test: pig calpain II inhibitor potency, dose response, biochemical, fluorogenic peptide substrate (AID 1420); format: functional
# T3 sequence (P43367 whole entry): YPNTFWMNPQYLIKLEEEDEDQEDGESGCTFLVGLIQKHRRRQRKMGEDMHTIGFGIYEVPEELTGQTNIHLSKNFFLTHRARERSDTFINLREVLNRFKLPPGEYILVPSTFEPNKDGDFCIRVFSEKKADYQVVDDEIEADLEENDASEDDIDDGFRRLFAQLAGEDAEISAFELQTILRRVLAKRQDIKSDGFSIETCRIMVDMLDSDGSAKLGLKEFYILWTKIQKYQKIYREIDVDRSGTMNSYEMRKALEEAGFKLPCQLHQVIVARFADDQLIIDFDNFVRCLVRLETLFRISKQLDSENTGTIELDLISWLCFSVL
# P388 = test: cells; format: functional; settings: Mus musculus
# INS1 = test: beta cell apoptosis inhibitors, cytokine rescue, dose response, luminescence, retest (AID 449756); format: functional, cell-based; settings: Rattus norvegicus;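 also: cell death triggered by IL-1 beta plus TNF-alpha plus IFN-gamma mixture; protective hits raise ATP signal compared with cytokine alone wells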
# BJ [6] = test: cytotoxicity toward BJ-TERT fibroblasts, dose response, cell-based, RAS-independent, luminescence (AID 1933); format: functional; settings: Homo sapiens
# P388/ADR = test: cells; format: functional; settings: Mus musculus
# BJ [7] = test: cytotoxicity toward BJ-TERT-LT-ST fibroblasts, dose response, cell-based, RAS-independent, luminescence (AID 1935); format: functional; settings: Homo sapiens;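 also: BJ fibroblasts immortalized with TERT plus LT and ST oncogenes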
# SN12K1 = test: cells; format: functional; settings: Homo sapiens
# [8] = cytotoxicity toward DRD oncogenic fibroblasts, dose response, cell-based, non-viral oncogenic, luminescence (AID 1934); format: functional; settings: Homo sapiens
# BJ [9] = test: cells; format: functional, cell-based; settings: Homo sapiens
# Genome polyprotein = Genome polyprotein (dengue virus type 2, UniProt P29990); test: Dengue-2 NS5 methyltransferase inhibitors, primary screen, biochemical, confirmation dose response (AID 588689); format: functional
# Cytochrome P450 2C19 = Cytochrome P450 2C19 (Homo sapiens, UniProt P33261); test: Cytochrome panel assay with activity outcomes. Panel member name: p450-cyp2c19 Compounds with AC50 equal or less than 10 uM are considered active; format: functional; settings: read-out: AC50
# Sequence of Cytochrome P450 2C19 (P33261 whole entry): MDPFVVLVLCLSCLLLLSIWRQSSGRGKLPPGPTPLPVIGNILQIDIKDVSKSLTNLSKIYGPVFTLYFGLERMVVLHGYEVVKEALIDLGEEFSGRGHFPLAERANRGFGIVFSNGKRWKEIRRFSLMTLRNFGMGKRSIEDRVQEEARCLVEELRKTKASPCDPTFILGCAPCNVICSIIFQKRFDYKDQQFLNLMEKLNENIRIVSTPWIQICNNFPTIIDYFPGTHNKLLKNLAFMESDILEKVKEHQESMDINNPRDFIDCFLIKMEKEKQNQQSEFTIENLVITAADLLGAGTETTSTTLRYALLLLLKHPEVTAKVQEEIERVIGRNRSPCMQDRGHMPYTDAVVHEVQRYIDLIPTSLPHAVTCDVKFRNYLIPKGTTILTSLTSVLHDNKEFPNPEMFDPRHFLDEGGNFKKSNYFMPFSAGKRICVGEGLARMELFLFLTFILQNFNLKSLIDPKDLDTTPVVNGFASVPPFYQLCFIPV
# Cytochrome P450 1A2 = molecular target: T4, Cytochrome P450 1A2 (Homo sapiens, UniProt P05177);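 also: PubChem cytochrome P450 panel assay, CYP1A2 panel member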
# T4 sequence (P05177 whole entry): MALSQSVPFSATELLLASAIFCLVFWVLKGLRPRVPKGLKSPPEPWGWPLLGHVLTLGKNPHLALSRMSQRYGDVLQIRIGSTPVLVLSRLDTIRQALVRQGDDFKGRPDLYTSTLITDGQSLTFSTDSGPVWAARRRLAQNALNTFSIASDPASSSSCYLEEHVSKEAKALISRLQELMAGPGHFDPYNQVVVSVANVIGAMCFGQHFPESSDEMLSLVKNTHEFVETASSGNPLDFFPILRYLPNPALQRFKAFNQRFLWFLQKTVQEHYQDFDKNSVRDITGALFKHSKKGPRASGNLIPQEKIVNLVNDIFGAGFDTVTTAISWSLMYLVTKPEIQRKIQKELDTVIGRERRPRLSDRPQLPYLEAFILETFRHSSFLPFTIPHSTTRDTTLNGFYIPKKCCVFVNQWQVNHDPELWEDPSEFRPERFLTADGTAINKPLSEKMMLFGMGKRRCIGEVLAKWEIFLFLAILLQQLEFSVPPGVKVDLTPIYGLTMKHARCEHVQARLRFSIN
# [10] = inhibitors of intracellular T. cruzi replication, confirmation, NIH3T3 host cells, beta-gal luminescence (AID 2044); format: functional, cell-based;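 also: intracellular parasites grown in NIH/3T3 mouse fibroblasts as host cells; luminescent beta-galactosidase reporter signal from transgenic T. cruzi replicating inside host cells; inhibitors lower the luminescence signal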
# [11] = cytotoxicity toward NIH3T3 fibroblasts, dose response, counter-screen, cell-based, ATP luminescence, mouse fibroblasts (AID 2010); format: functional;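 also: cells exposed to compound for about 90 hours before reading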
# Large T antigen = Large T antigen (Simian virus 40, UniProt P03070); format: functional, Betapolyomavirus macacae;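 also: Confirmatory-stage PubChem screen for compounds that inhibit SV40 T antigen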
# Sequence of Large T antigen (P03070 whole entry): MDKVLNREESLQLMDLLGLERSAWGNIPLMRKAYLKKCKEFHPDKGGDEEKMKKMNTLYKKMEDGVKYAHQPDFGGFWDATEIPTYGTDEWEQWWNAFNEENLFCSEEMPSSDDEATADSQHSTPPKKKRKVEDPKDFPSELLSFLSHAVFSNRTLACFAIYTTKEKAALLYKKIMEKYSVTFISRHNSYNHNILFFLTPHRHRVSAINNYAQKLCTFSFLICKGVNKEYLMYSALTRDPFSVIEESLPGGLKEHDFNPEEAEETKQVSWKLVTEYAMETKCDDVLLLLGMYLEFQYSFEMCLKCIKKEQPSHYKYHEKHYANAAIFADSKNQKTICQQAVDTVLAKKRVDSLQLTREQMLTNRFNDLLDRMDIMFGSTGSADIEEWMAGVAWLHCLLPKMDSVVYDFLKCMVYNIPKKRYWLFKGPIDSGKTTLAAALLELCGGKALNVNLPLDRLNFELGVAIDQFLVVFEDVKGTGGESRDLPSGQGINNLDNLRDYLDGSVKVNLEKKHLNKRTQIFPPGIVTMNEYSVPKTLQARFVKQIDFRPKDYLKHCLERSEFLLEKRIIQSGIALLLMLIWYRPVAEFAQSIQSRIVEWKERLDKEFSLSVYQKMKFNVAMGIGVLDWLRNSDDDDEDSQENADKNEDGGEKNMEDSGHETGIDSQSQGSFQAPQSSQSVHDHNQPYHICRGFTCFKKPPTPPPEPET
# Cytochrome P450 3A4 = Cytochrome P450 3A4 (Homo sapiens, UniProt P08684);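 also: CYP3A4 tested as one member of a cytochrome P450 panel screen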
# Sequence of Cytochrome P450 3A4 (P08684 whole entry): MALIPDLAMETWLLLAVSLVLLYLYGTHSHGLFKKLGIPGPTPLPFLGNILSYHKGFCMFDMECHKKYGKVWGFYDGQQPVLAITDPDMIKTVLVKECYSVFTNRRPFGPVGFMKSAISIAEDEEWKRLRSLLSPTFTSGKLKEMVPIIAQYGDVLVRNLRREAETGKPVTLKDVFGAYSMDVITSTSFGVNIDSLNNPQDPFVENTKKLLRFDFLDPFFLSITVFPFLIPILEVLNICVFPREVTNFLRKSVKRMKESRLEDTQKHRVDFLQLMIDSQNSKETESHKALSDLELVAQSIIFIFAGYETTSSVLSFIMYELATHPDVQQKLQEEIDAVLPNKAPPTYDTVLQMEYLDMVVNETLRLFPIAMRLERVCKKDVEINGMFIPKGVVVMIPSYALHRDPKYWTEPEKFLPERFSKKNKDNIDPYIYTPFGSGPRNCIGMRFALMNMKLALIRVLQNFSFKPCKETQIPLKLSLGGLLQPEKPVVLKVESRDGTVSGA
# [12] = HEp-2 cell cytotoxicity, dose response, cytotoxicity control for RSV inhibitor project, HTS (AID 2410); format: functional; settings: human respiratory syncytial virus
# [13] = inhibitors of clade B AD8 Env fusion, dose response, cell-based, cherry-pick (AID 652062); format: functional;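 also: luciferase signal from cell-cell fusion driven by HIV-1 clade B AD8 Env; potency is for inhibitors of fusion seen as a drop in luminescence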
# Cytochrome P450 2C9 [14] = molecular target: T2, Cytochrome P450 2C9; remark: listed apart in the source
# [15] = Luminescence Cell-Based Dose Retest to Confirm Inhibitors of Cancer Stem Cells. [Related pubchem assays (depositor defined):AID2717, AID2721]; format: functional; settings: Homo sapiens
# [16] = THP-1 cell cytotoxicity, dose response, cytotoxicity control for non-replicating M. tuberculosis project (AID 489025); format: functional
# [17] = molecular target: T5, Rac GTPase-activating protein 1 (Homo sapiens, UniProt Q9H0H5); test: MgcRacGAP GTPase-activating activity inhibitors, confirmation, biochemical, ADP Hunter fluorescence, primary and confirmatory (AID 624330); format: functional
# T5 sequence (Q9H0H5 whole entry): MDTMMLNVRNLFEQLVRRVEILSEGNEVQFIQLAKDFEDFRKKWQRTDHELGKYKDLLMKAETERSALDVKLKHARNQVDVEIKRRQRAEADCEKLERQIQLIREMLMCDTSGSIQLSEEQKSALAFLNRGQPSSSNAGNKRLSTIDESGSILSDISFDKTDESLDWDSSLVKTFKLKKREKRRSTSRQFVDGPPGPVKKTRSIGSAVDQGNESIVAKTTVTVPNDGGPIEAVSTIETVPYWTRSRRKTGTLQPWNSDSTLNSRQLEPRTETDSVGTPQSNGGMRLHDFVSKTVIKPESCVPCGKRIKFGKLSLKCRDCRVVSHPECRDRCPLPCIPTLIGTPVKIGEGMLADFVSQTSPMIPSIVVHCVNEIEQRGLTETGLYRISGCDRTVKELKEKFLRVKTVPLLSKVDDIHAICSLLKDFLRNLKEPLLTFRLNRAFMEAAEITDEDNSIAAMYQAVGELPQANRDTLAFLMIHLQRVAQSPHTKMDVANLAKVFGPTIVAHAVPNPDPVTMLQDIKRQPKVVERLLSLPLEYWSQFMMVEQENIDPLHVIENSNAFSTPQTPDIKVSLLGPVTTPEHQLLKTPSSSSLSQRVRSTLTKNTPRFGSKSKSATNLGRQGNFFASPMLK
# T1 sequence (P49327 whole entry, the tested form may be a part): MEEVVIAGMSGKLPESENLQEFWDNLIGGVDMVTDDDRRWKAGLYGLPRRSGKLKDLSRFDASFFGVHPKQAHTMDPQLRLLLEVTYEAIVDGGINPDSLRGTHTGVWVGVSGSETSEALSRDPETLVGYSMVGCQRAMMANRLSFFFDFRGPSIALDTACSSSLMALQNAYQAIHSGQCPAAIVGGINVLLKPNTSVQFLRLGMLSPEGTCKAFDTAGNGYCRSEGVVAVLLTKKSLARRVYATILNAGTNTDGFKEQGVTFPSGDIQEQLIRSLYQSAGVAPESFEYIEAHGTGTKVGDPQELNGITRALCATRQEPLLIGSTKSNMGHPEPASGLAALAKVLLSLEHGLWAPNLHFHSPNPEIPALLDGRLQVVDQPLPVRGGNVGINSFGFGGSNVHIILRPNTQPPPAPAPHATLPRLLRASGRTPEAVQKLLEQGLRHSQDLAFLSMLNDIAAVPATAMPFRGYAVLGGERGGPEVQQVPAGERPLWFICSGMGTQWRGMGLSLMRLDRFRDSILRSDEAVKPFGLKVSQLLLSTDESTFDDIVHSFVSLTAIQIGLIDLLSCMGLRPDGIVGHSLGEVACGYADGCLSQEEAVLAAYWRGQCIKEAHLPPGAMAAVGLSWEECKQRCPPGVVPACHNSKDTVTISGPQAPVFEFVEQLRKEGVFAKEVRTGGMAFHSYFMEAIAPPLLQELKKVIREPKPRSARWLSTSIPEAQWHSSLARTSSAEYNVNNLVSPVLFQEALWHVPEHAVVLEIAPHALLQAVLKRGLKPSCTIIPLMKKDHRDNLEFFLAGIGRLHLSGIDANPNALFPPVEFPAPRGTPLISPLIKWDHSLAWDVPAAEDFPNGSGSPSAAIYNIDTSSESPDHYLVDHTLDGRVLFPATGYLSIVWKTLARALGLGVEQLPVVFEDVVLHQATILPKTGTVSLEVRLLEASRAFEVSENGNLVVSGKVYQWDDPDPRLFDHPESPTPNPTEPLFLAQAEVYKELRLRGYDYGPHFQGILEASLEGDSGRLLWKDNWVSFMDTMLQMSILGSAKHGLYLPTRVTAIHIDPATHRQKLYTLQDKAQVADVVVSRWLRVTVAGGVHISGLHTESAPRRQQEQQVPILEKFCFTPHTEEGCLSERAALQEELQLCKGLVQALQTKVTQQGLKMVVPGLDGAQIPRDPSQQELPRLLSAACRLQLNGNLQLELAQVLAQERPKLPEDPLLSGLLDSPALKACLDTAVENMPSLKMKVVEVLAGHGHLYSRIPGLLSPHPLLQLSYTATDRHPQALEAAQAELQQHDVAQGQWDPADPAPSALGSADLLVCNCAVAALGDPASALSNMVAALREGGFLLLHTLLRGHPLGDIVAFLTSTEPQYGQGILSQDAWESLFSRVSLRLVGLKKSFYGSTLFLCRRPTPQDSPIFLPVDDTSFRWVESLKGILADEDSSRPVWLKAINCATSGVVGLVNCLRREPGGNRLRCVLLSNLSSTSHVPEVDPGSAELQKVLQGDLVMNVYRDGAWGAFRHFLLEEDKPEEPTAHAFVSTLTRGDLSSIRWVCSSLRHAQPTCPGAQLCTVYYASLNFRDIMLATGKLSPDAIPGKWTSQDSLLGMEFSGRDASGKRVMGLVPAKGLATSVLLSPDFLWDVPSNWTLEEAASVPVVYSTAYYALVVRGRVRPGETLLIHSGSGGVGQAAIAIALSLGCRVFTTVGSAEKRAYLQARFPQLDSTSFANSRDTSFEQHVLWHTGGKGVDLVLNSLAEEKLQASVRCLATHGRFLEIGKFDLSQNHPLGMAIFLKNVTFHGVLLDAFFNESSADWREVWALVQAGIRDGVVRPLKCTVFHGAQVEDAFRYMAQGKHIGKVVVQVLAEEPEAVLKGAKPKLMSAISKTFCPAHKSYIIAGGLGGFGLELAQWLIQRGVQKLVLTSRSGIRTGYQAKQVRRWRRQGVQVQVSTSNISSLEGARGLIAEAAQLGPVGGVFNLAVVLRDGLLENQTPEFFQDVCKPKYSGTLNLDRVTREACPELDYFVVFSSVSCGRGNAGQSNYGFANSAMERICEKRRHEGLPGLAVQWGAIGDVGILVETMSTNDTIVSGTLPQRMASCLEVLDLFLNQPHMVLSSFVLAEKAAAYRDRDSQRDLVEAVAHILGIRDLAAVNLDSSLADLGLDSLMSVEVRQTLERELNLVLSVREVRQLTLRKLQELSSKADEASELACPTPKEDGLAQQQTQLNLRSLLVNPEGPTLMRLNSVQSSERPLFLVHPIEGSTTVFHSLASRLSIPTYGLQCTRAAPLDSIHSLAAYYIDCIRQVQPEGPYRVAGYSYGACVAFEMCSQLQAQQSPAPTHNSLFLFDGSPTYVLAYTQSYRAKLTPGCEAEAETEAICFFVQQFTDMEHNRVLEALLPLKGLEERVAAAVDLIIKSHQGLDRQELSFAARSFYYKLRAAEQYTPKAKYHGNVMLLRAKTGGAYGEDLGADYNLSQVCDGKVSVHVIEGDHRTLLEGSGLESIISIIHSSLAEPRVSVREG
smiles,measurement,setting,value
COc1ccc([N+](=O)[O-])cc1NC(=O)CCCOc1ccccc1,IC50,Fatty acid synthase [1],8.62 µM (active)
same,IC50,Fatty acid synthase [2],7.3 µM (active)
COc1ccccc1CNC(=O)CCN1C(=O)COc2ccc(C)cc21,AC50,Cytochrome P450 2C9 [3],inconclusive
Cc1ccc(CNC(=O)c2ccc3c(=O)[nH]c4c(C(=O)NCC5CCCO5)sc(=S)n4c3c2)cc1 (stereo not drawn),IC50,[4],6.74 µM (active)
same,IC50,[5],5.68 µM (active)
Cc1ccc(C(=O)N/C(=C\c2cccc([N+](=O)[O-])c2)C(=O)Nc2cccc(C(=O)O)c2)cc1,IC50,Fatty acid synthase [1],8.2 µM (active)
same,IC50,Fatty acid synthase [2],15.1 µM (active)
CC1(C)N=C(N)N=C(N)N1c1ccc(OCCCOc2ccccc2)c(Cl)c1,GI50,P388,< 0.01 µM (active)
same,AC50,INS1,5.88 µM (active)
same,EC50,BJ [6],23.8 µM (active)
same,GI50,P388/ADR,1.39 µM (inactive)
same,EC50,BJ [7],> 150 µM (not active)
same,GI50,SN12K1,0.0289 µM (active)
same,EC50,[8],0.174 µM (inconclusive)
same,EC50,BJ [9],< 0.12 µM (active)
O=C(Nc1ccc(N2CCCC2)cc1)c1ccc(Br)o1,IC50,[4],0.932 µM (active)
O=[N+]([O-])c1ccc(NCc2ccccc2)nc1,IC50,[5],34.1 µM (not active)
CCC(C(=O)O)N1C(=O)/C(=C/C(C)=C/c2ccccc2)SC1=S (stereo not drawn),IC50,Genome polyprotein,37.8 µM (active)
Cc1ccc(C(=O)Nc2ccc(N3CCOCC3)nc2)cc1,AC50,Cytochrome P450 2C19,2.82 µM (inconclusive)
same,AC50,Cytochrome P450 2C9 [3],inconclusive
same,AC50,Cytochrome P450 1A2,17.8 µM (inconclusive)
COC(=O)c1ccc(COc2cc([N+](=O)[O-])cc3cccnc23)o1,IC50,Fatty acid synthase [1],11.6 µM (active)
same,IC50,Fatty acid synthase [2],13.3 µM (active)
S=C(NCc1ccc(Cl)cc1)NC1CCN(Cc2ccccc2)CC1,EC50,[10],2.86 µM (active)
same,EC50,[11],> 30 µM (not active)
same,IC50,[5],18.6 µM (not active)
CCN(Cc1ccccc1)C(=O)COC(=O)c1cc(Cl)nc(Cl)c1,IC50,Fatty acid synthase [1],9.26 µM (active)
same,IC50,Fatty acid synthase [2],9.66 µM (active)
Oc1nc2cc(NCc3ccc(F)cc3)ccc2[nH]1,IC50,Large T antigen,13.2 µM (active)
FC(F)(F)c1cccc(N2CCN(CC3CC4C=CC3C4)CC2)c1 (stereo not drawn),AC50,Cytochrome P450 2C9 [3],inconclusive
same,AC50,Cytochrome P450 3A4,39.8 µM (inconclusive)
same,AC50,Cytochrome P450 1A2,11.2 µM (inconclusive)
COc1ccc(NC(=O)c2[nH]cnc2C(=O)N[C@H](C)c2ccccc2)cc1,IC50,Fatty acid synthase [1],11.5 µM (active)
same,IC50,Fatty acid synthase [2],10.9 µM (active)
Cc1ccc(S(=O)(=O)Nc2ccccc2C=O)cc1,AC50,Cytochrome P450 2C9 [3],inconclusive
CC1=NOC(=O)/C1=C\c1ccc(-c2ccc(Br)cc2C(=O)O)o1,IC50,Genome polyprotein,20.1 µM (active)
CC(C)(C)c1ccc(C(=O)Nc2cccc([N+](=O)[O-])c2)cc1,CC50,[12],5.38 µM (active)
same,IC50,[5],2.13 µM (not active)
COc1ccccc1NC(=O)c1sc2ncn(Cc3ccccc3C)c(=O)c2c1C,AC50,Cytochrome P450 2C9 [3],inconclusive
CCOC(=O)N1CCN(Cc2nc3ccc([N+](=O)[O-])cc3c(=O)n2-c2cccc(OC)c2)CC1,IC50,Fatty acid synthase [1],3.04 µM (active)
same,IC50,Fatty acid synthase [2],3.46 µM (active)
CCC(NCCc1c[nH]c2ccccc12)=C1C(=O)N(C)C(=O)N(C)C1=O,AC50,[13],17.6 µM (active)
Cc1cc(C)nc(Nc2n[nH]c(COc3cccc4ccccc34)n2)n1,AC50,Cytochrome P450 2C9 [3],inconclusive
same,AC50,Cytochrome P450 3A4,2.24 µM (inconclusive)
Nc1cc(S(=O)(=O)N2CCCCC2)ccc1Oc1ccccc1,IC50,[5],20.8 µM (not active)
Cc1ccc2c(c1)C1CN(C)CCC1N2C(=O)Nc1cccc(Cl)c1 (stereo not drawn),AC50,Cytochrome P450 2C9 [14],39.8 µM (inconclusive)
same,IC50,[4],8.64 µM (not active)
C=CCOc1ccc(CNc2ccc3[nH]c(O)nc3c2)cc1OCC,IC50,Large T antigen,20.5 µM (active)
O=S(=O)(Nc1ccc(-c2csc(-c3ccccc3)n2)cc1)c1ccccc1,IC50,Fatty acid synthase [1],8.85 µM (active)
same,IC50,Fatty acid synthase [2],9.18 µM (active)
same,AC50,[15],5.04 µM (active)
O=C1CC(SC(=NCc2ccc3c(c2)OCO3)Nc2ccccc2)C(=O)N1c1ccccc1 (stereo not drawn),IC50,[5],> 50 µM (not active)
CC(C)NC(=O)c1ccc(-c2cccc(C(F)(F)F)c2)o1,AC50,Cytochrome P450 2C9 [3],inconclusive
C[C@]12CC[C@H](O)C=C1CC[C@@H]1[C@@H]2CC[C@]2(C)C(c3ccc(=O)oc3)CC[C@]12O (stereo partly drawn),GI50,P388,116 µM (inactive)
same,GI50,P388/ADR,119 µM (inactive)
same,GI50,SN12K1,0.0136 µM (active)
C=C1C(=O)OC2C1CC1OC2C(C)CCC/C(C)=C\CCC1(C)O (stereo not drawn),GI50,P388,8.05 µM (inactive)
same,GI50,P388/ADR,9.66 µM (inactive)
same,GI50,SN12K1,10.9 µM (inactive)
CCN(CC)CCCNc1ncc(C)c2[nH]c3ccncc3c12,GI50,P388,0.479 µM (active)
same,GI50,P388/ADR,76.9 µM (inactive)
same,GI50,SN12K1,5.56 µM (inactive)
COc1ccc(C(=O)/C(Br)=C/C(=O)O)cc1,GI50,P388,11.7 µM (inactive)
same,GI50,P388/ADR,17.7 µM (inactive)
same,GI50,SN12K1,6 µM (inactive)
COc1cc(C2c3cc4c(cc3[C@@H](Nc3cnc5ccccc5c3)C3COC(=O)[C@H]23)OCO4)cc(OC)c1O (stereo partly drawn),GI50,P388,< 0.01 µM (active)
same,GI50,P388/ADR,0.182 µM (active)
same,GI50,SN12K1,0.0269 µM (active)
Cc1ccc(-c2ccc(/C=N/NC(=O)CN3CCCC3)o2)cc1Cl,CC50,[16],37.8 µM (active)
COc1cc(/C=N/NC(=O)c2ccncc2)ccc1O,IC50,Large T antigen,6.8 µM (active)
O=C(COc1ccccc1[N+](=O)[O-])N/N=C/c1ccc(O)cc1,IC50,[17],80.8 µM (active)
same,IC50,Large T antigen,9.26 µM (active)
Cc1nn(-c2ccc(Br)cc2)c(O)c1/C=N/c1ccc(S(=O)(=O)Nc2nccs2)cc1,IC50,[4],6 µM (active)
O=C(N/N=C\c1ccccc1OCc1ccccc1)c1ccco1,CC50,[16],39.6 µM (active)
NCCCNc1ccc2c3c(nn2CCNCCO)-c2c(O)ccc(O)c2C(=O)c13,GI50,P388,0.146 µM (active)
same,GI50,P388/ADR,1.21 µM (inactive)
same,GI50,SN12K1,0.167 µM (active)
N#C/C(=C\c1ccc(O)c(O)c1)C(=O)NCc1ccccc1,IC50,Large T antigen,14.6 µM (active)
same,AC50,Cytochrome P450 2C19,25.1 µM (inconclusive)
same,AC50,Cytochrome P450 2C9 [3],inconclusive
O=c1c(-c2ccc(O)cc2)coc2cc(O[C@@H]3O[C@H](CO)[C@@H](O)[C@H](O)[C@H]3O)ccc12 [DAIDZIN],IC50,Large T antigen,> 100 µM (active)
C1=Cc2ccccc2Nc2ccccc21 [IMINOSTILBENE],IC50,[17],14.9 µM (active)
same,IC50,Large T antigen,14.3 µM (active)
